The values that follow come from patent publication EP0667868B1, “CEPHEM COMPOUNDS” (FUJISAWA PHARMACEUTICAL CO., LTD., priority 1993, dated 1995).

The test system of one series is H. influenzae. As to the kind of experiment: Minimal inhibitory concentration, two-fold agar-plate dilution method. The class given is cell-based. The note with it: Haemophilus influenzae, HI-agar, 37°C for 20 hours. The protocol:
(§1) In vitro antibacterial activity was determined by the two-fold agar-plate dilution method as described below.
(§2) One loopful of an overnight culture of each test strain in Trypticase-soy broth (10^8 viable cells per ml) was streaked on heart infusion agar (HI-agar)containing graded concentrations of representative test compound, and the minimal inhibitory concentration (MIC) was expressed in terms of µg/ml after incubation at 37°C for 20 hours.

Another series deals with E. coli. Described as above. It counts as cell-based. The settings on record: Escherichia coli, HI-agar, 37°C for 20 hours. Here is the method:
as §1, §2

In another series the test system is S. aureus. The description is as above. The settings on record: Staphylococcus aureus, HI-agar, 37°C for 20 hours. The class given is cell-based. Here is the method: as §1, §2
A short description of series [1]: Urinary excretion after oral administration (disc-plate diffusion bioassay). The class given is in vivo, Male JCL SD strain rats. The note with it: rat; rats, 20 mg /kg oral, suspended in 0.5% methyl cellulose; urine 0 to 6 and 6 to 24 hours; Bacillus subtilis ATCC 6633 as test organism; read-out: Urinary recovery in 24 hours. The protocol: Male JCL SD strain rats (age, 6-7 weeks) were used. Test compound was suspended in 0.5% methyl cellulose solution. The rats were starved overnight before dosing with 20 mg /kg. Urine samples were collected at 0 to 6 and 6 to 24 hours after oral administration were measured by the disc-plate diffusion method using Bacillus subtilis ATCC 6633 as test organism and sodium citrate agar (0.8% sodium citrate, 0.5% polypeptone, 0.3% beef extract and 1.0% agar) as the test medium. The plate were incubated at 37°C for 18 hours and the zone of inhibition were measured.

Structures are written as SMILES. In brackets after ≈: the same amount, converted by molar mass.

As for `Nc1nc(/C(=N/O)C(=O)N[C@@H]2C(=O)N3C(C(=O)O)=C(SCc4cn[nH]c4)CS[C@H]23)cs1` [(3), 7β-[2-(2-Aminothiazol-4-yl)-2-(Z)-(hydroxyimino)-acetamido]-3-[(pyrazol-4-yl)methylthio]-3-cephem-4-carboxylic acid], the MIC amounted to 0.129 µg/mL (≈ 0.268 µM) against H. influenzae, 0.033 µg/mL (≈ 0.0685 µM) against E. coli and 0.23 µg/mL (≈ 0.478 µM) against S. aureus. Besides, the dose excreted at 24 h in series [1] amounted to 50%.
With `Nc1nc(/C(=N/O)C(=O)N[C@@H]2C(=O)N3C(C(=O)O)=C(SCc4ccncc4)CS[C@H]23)cs1` [Comparative (1), 7β-[2-(2-Aminothiazol-4-yl)-2-(Z)-(hydroxyimino)-acetamido]-3-[(4-pyridyl)methylthio]-3-cephem-4-carboxylic acid], the MIC was 0.067 µg/mL (≈ 0.136 µM) against H. influenzae, 0.061 µg/mL (≈ 0.124 µM) in the series on E. coli and 0.143 µg/mL (≈ 0.29 µM) in the series with S. aureus.
Regarding `Cc1nnsc1CSC1=C(C(=O)O)N2C(=O)[C@@H](NC(=O)/C(=N\O)c3csc(N)n3)[C@H]2SC1` [Comparative (2), 7β-[2-(2-Aminothiazol-4-yl)-2-(Z)-(hydroxyimino)-acetamido]-3-[(4-methyl-1,2,3-thiadiazol-5-yl)methylthio]-3-cephem-4-carboxylic acid], the MIC with H. influenzae amounted to 0.118 µg/mL (≈ 0.23 µM); against E. coli, 0.072 µg/mL (≈ 0.14 µM); in the series on S. aureus, 0.167 µg/mL (≈ 0.325 µM).
